Data reported in patent US20100189766A1, “SUBSTANCE DELIVERING PUNCTUM IMPLANTS AND METHODS” (QLT PLUG DELIVERY, INC., priority 2008, published 2010).

Experiment: Diffusion or passage of latanoprost from the substance insert through the wall of the punctum plug
Type: physicochemical
Description: In applications where it is desired to deliver the therapeutic or diagnostic substance to or through the cornea or the eye it is desirable to cause the substance to become dissolved in the tear film TF which covers the cornea of the eye, while deterring or minimizing untoward loss of substance through other routes, such as through direct absorption into tissues surrounding the punctum and/or canaliculus LC in which the device is implanted (referred to generally herein as “pericanalicular tissue absorption”) or by drainage through the naso-lacrimal system into the nose. One way to limit or deter such loss of substance is to render all or part of the punctum plug 12, 12a impervious to the substance so that the substance cannot diffuse or pass through the wall of the punctum plug 12, 12a. This may be particularly important in embodiments where the punctum plug 12, 12a is formed of silicone or other material through which the substance can pass. […] The substance insert receiving portion 20b may have the same configuration as either of those substance insert receiving portions 20, 20a described above. However, in this embodiment, a coating 60 has been applied to the outer surface of the side wall of the substance insert receiving portion 20b. Such coating may also be applied to other portions of the punctum plug 12b or to the entire punctum plug 12b. […]

- loss by diffusion or passage through the punctum plug (substance-impervious coating 60 applied to outer surface of the substance insert receiving portion and/or other portions of the punctum plug): substantially prevented
Structure (SMILES): CC(C)OC(=O)CCC/C=C\C[C@@H]1[C@@H](CC[C@@H](O)CCc2ccccc2)[C@H](O)C[C@@H]1O [latanoprost]
- diffusion or passage through the wall of the punctum plug (punctum plug formed of silicone, no coating, substance insert contains latanoprost): some of the latanoprost will diffuse or pass through the wall of the punctum plug
